From patent publication US11680049B2, “Certain (2S)-N-[(1S)-1-cyano-2-phenylethyl]-1,4-oxazepane-2-carboxamides as dipeptidyl peptidase 1 inhibitors” (AstraZeneca AB, priority 2014, dated 2023)

Experiments:
[1] = Rat quantitative whole-body autoradiography (QWBA) studies, aortic retention; assay type: in vivo
[2] = described in literature (Schmidt et al. 1984); concomitant ultra-structural changes by electron microscopy; cited from earlier work

Structure (SMILES)	aortic retention in rat QWBA studies [1]	retention in the aorta in QWBA studies [2]
N#Cc1ccc(-c2ccc(C[C@@H](C#N)NC(=O)C3(N)CCOCC3)cc2)cc1 [WO2010/128324 (Ex. 3), 4-amino-N-[(1S)-1-cyano-2-(4′-cyanobiphenyl-4-yl)ethyl]tetrahydro-2H-pyran-4-carboxamide]	high level of aortic retention	–
CC(c1ccc(Cl)c(Cl)c1)N1N=C(N)CC1=O (centres unmarked) [muzolimine]	–	retained selectively in the aorta
